Data set [1] relates to Caenorhabditis elegans. Briefly: Toxicity in L4 larvae of Caenorhabditis elegans at 800 uM after 8 hrs. In kind it is organism-based. The settings on record: in vivo.
Data set [2] concerns Caenorhabditis elegans. Briefly: Reduction of frequency of pharyngeal pumping in Caenorhabditis elegans at 300 uM on 3rd to 9th day of adulthood. In kind it is functional, organism-based.
Data set [3] has as its system Caenorhabditis elegans. As to the kind of experiment: Increase of lifespan of L4 larvae of Caenorhabditis elegans at 300 uM in presence of heat killed bacteria. In kind it is functional, organism-based.
The test system of data set [4] is Caenorhabditis elegans. Briefly: Increase of median lifespan of L4 larvae of Caenorhabditis elegans harboring eat-2 (ad465) at 300 uM after 8 hrs. In kind it is functional.
Data set [5] concerns Caenorhabditis elegans. As to the kind of experiment: […] assessed as trolox equivalent of lipid soluble antioxidant metabolites at 300 uM by photochemiluminescence assay. Type of data set: functional, organism-based.
For data set [6], the system named is Caenorhabditis elegans. As to the kind of experiment: Increase of lifespan of L4 larvae of Caenorhabditis elegans assessed as lifespan increasing concentration after 8 hrs. Type of data set: functional.
In data set [7] the test system is Caenorhabditis elegans. Briefly: Increase of lifespan of L4 larvae of Caenorhabditis elegans at 300 uM at 35 degC after 8 hrs. Type of data set: functional, organism-based.
Data set [8] deals with Caenorhabditis elegans. As to the kind of experiment: Increase of frequency of pharyngeal pumping in Caenorhabditis elegans at 300 uM on 9th day of adulthood. Type of data set: functional, organism-based.
In data set [9] the test system is Caenorhabditis elegans. As to the kind of experiment: Reduction of initial reproduction rate in Caenorhabditis elegans assessed as first egg deposition at 300 uM after 85 hrs. In kind it is functional, organism-based.
The test system of data set [10] is Caenorhabditis elegans. As to the kind of experiment: Increase of lifespan of L4 larvae of Caenorhabditis elegans at 300 uM after 8 hrs in presence of H2O2. In kind it is functional, organism-based.
The test system of data set [11] is Caenorhabditis elegans. Briefly: Increase of body length of L4 larvae of Caenorhabditis elegans at 300 uM by microscopic analysis. Type of data set: functional, organism-based.
Data set [12] relates to Caenorhabditis elegans. Briefly: […] assessed as ascorbic acid equivalent of water soluble antioxidant metabolites at 300 uM by photochemiluminescence assay. Type of data set: functional, organism-based.
Data set [13] relates to Caenorhabditis elegans. As to the kind of experiment: Increase of lifespan of L4 larvae of Caenorhabditis elegans after 8 hrs in presence of H2O2. Type of data set: functional, organism-based.
The test system of data set [14] is Caenorhabditis elegans. As to the kind of experiment: Increase of lifespan of L4 larvae of Caenorhabditis elegans after 8 hrs. In kind it is functional, organism-based.
Data set [15] has as its system Caenorhabditis elegans. As to the kind of experiment: Increase of lifespan of L4 larvae of Caenorhabditis elegans at 35 degC after 8 hrs. Type of data set: functional, organism-based.
For data set [16], the system named is Caenorhabditis elegans. As to the kind of experiment: Increase of mean lifespan of L4 larvae of Caenorhabditis elegans harboring eat-2 (ad465) at 300 uM after 8 hrs. In kind it is functional.
For data set [17], the system named is Caenorhabditis elegans. As to the kind of experiment: Increase of lifespan of L4 larvae of Caenorhabditis elegans at 50 uM in presence of heat killed bacteria. Type of data set: functional, organism-based.
Data set [18] deals with Caenorhabditis elegans. As to the kind of experiment: Reduction of frequency of pharyngeal pumping in Caenorhabditis elegans at 50 uM on 3rd to 9th day of adulthood. Type of data set: functional, organism-based.
Data set [19] deals with Caenorhabditis elegans. Briefly: Reduction of body length of L4 larvae of Caenorhabditis elegans at 50 uM by microscopic analysis. Type of data set: functional, organism-based.
Data set [20] relates to Caenorhabditis elegans. As to the kind of experiment: Reduction of initial reproduction rate in Caenorhabditis elegans assessed as first egg deposition at 50 uM after 85 hrs. Type of data set: functional, organism-based.
The test system of data set [21] is Caenorhabditis elegans. As to the kind of experiment: […] assessed as ascorbic acid equivalent of water soluble antioxidant metabolites at 50 uM by photochemiluminescence assay. In kind it is functional, organism-based.
Data set [22] deals with Caenorhabditis elegans. As to the kind of experiment: Increase of frequency of pharyngeal pumping in Caenorhabditis elegans at 200 uM on 3rd to 9th day of adulthood. Type of data set: functional, organism-based.
The test system of data set [23] is Caenorhabditis elegans. As to the kind of experiment: Reduction of initial reproduction rate in Caenorhabditis elegans assessed as first egg deposition at 200 uM after 85 hrs. Type of data set: functional, organism-based.
Data set [24] relates to Caenorhabditis elegans. Briefly: Increase of lifespan of Caenorhabditis elegans assessed as trolox equivalent of lipid soluble antioxidant metabolites at 200 uM by photochemiluminescence assay. In kind it is functional, organism-based.
Data set [25] relates to Caenorhabditis elegans. Briefly: Reduction of frequency of pharyngeal pumping in Caenorhabditis elegans at 200 uM on 3rd to 9th day of adulthood. In kind it is functional, organism-based.
In data set [26] the test system is Caenorhabditis elegans. As to the kind of experiment: Reduction of body length of L4 larvae of Caenorhabditis elegans at 200 uM by microscopic analysis. Type of data set: functional, organism-based.
For data set [27], the system named is Caenorhabditis elegans. As to the kind of experiment: Increase of lifespan of Caenorhabditis elegans assessed as ascorbic acid equivalent of water soluble antioxidant metabolites at 200 uM by photochemiluminescence assay. Type of data set: functional, organism-based.
The subject of data set [28] is Caenorhabditis elegans. Briefly: Reduction of frequency of pharyngeal pumping in Caenorhabditis elegans at 100 uM on 3rd to 9th day of adulthood. In kind it is functional, organism-based.
The subject of data set [29] is Caenorhabditis elegans. Briefly: […] assessed as trolox equivalent of lipid soluble antioxidant metabolites at 100 uM by photochemiluminescence assay. In kind it is functional, organism-based.
Data set [30] deals with Caenorhabditis elegans. Briefly: Increase of mean lifespan of L4 larvae of Caenorhabditis elegans harboring mev-1 (kn1) mutant at 100 uM after 8 hrs. In kind it is functional.
The subject of data set [31] is Caenorhabditis elegans. Briefly: Reduction of initial reproduction rate in Caenorhabditis elegans assessed as first egg deposition at 100 uM after 85 hrs. Type of data set: functional, organism-based.
Data set [32] has as its system Caenorhabditis elegans. Briefly: Increase of mean lifespan of L4 larvae of wild type Caenorhabditis elegans at 100 uM after 8 hrs. Type of data set: functional.
The test system of data set [33] is Caenorhabditis elegans. As to the kind of experiment: Reduction of body length of L4 larvae of Caenorhabditis elegans at 100 uM by microscopic analysis. Type of data set: functional, organism-based.
Data set [34] concerns Caenorhabditis elegans. As to the kind of experiment: […] assessed as ascorbic acid equivalent of water soluble antioxidant metabolites at 100 uM by photochemiluminescence assay. Type of data set: functional, organism-based.
The subject of data set [35] is Caenorhabditis elegans. As to the kind of experiment: Reduction of triglyceride level in Caenorhabditis elegans at 100 uM. Type of data set: functional, organism-based.

Calls of active or inactive are those of the source. No cut-off for these calls is given here.

Consider `Oc1cc(O)c2c(c1)O[C@H](c1ccc(O)c(O)c1)[C@@H](O)C2` [CATECHIN], for which the Activity result with Caenorhabditis elegans [1] is “Non-toxic”.
Turning to `O=C(O)c1cc(O)c(O)c(O)c1` [GALLIC ACID], the outcome with Caenorhabditis elegans [2], in the data set on Caenorhabditis elegans [5], with Caenorhabditis elegans [7], with Caenorhabditis elegans [10] and in the data set with Caenorhabditis elegans [12] was inactive. Besides, the outcome in the data set on Caenorhabditis elegans [3], with Caenorhabditis elegans [8], in the data set on Caenorhabditis elegans [9], with Caenorhabditis elegans [11], in the data set with Caenorhabditis elegans [13] and in the data set on Caenorhabditis elegans [14] was Active. Besides, in the data set with Caenorhabditis elegans [15], the outcome was Active. Further, the Activity result in the data set on Caenorhabditis elegans [1] was “Non-toxic”; with Caenorhabditis elegans [4] it was 11%; with Caenorhabditis elegans [6] it was 300 µM; with Caenorhabditis elegans [16] it was 7%.
Consider `O=c1oc2c(O)c(O)cc3c(=O)oc4c(O)c(O)cc1c4c23` [ELLAGIC ACID], for which the Activity result with Caenorhabditis elegans [1] was “Toxic”; with Caenorhabditis elegans [6], 50 µM. In addition, the outcome in the data set on Caenorhabditis elegans [17], in the data set on Caenorhabditis elegans [19], with Caenorhabditis elegans [20] and in the data set with Caenorhabditis elegans [21] was Active. The result with Caenorhabditis elegans [18] and with Caenorhabditis elegans [13] was inactive.
Consider `Oc1cc(O)c2c(c1)OC(c1ccc(O)c(O)c1)C(O)C2` (stereo not drawn) [CATECHIN], for which the result in the data set on Caenorhabditis elegans [22], in the data set on Caenorhabditis elegans [26], with Caenorhabditis elegans [13], in the data set on Caenorhabditis elegans [14] and with Caenorhabditis elegans [15] was Active. Moreover, the outcome with Caenorhabditis elegans [23], in the data set on Caenorhabditis elegans [24], in the data set with Caenorhabditis elegans [25] and with Caenorhabditis elegans [27] was inactive. Also, the Activity in the data set with Caenorhabditis elegans [6] was found to be 200 µM.
For `O=C(OC[C@H]1O[C@@H](OC(=O)c2cc(O)c(O)c(OC(=O)c3cc(O)c(O)c(O)c3)c2)[C@H](OC(=O)c2cc(O)c(O)c(OC(=O)c3cc(O)c(O)c(O)c3)c2)[C@@H](OC(=O)c2cc(O)c(O)c(OC(=O)c3cc(O)c(O)c(O)c3)c2)[C@@H]1OC(=O)c1cc(O)c(O)c(OC(=O)c2cc(O)c(O)c(O)c2)c1)c1cc(O)c(O)c(OC(=O)c2cc(O)c(O)c(O)c2)c1` [TANNIC ACID], the result in the data set with Caenorhabditis elegans [28] and with Caenorhabditis elegans [13] was inactive. Besides, the Activity entry is “Toxic” in the data set on Caenorhabditis elegans [1], 3.2% in the data set with Caenorhabditis elegans [30], 100 µM with Caenorhabditis elegans [6] and 17.6% in the data set on Caenorhabditis elegans [32]. The result with Caenorhabditis elegans [29], in the data set with Caenorhabditis elegans [31], with Caenorhabditis elegans [14], in the data set on Caenorhabditis elegans [15], with Caenorhabditis elegans [33] and in the data set with Caenorhabditis elegans [34] was Active. For the same compound, the outcome with Caenorhabditis elegans [35] was Active.

Source of the values: ChEMBL document CHEMBL2203224, “Diversity of polyphenol action in Caenorhabditis elegans: between toxicity and longevity” (J Nat Prod, 2011).
